Measurements from PubChem BioAssay (NCI).
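All cell lines were grown in 96-well plates and treated with compound for 48 hours. At the GI50, growth is halved. TGI: concentration producing complete growth inhibition.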

What was measured:
Assay in all cases: DTP human tumour cell line panel, 48 h
[1] = system: EKVX NSCLC
[2] = system: MDA-MB-468 breast
[3] = system: HOP-92 NSCLC
[4] = system: DU-145 prostate
[5] = system: OVCAR-3 ovarian
[6] = system: MCF7 breast
[7] = system: OVCAR-5 ovarian
[8] = system: TK-10 renal
[9] = system: OVCAR-4 ovarian
[10] = system: PC-3 prostate
[11] = system: HCT-15 colon
[12] = system: KM12 colon
[13] = system: SK-MEL-5 melanoma
[14] = system: U251 CNS
[15] = system: SF-539 CNS
[16] = system: SK-MEL-28 melanoma
[17] = system: COLO 205 colon
[18] = system: BT-549 breast
[19] = system: SW-620 colon
[20] = system: HL-60(TB) leukemia
[21] = system: SR leukemia
[22] = system: MOLT-4 leukemia
[23] = system: LOX IMVI melanoma
[24] = system: UO-31 renal
[25] = system: ACHN renal
[26] = system: NCI-H460 lung
[27] = system: RXF 393 renal
[28] = system: HOP-62 NSCLC
[29] = system: CAKI-1 renal
[30] = system: MDA-MB-435
[31] = system: UACC-62 melanoma
[32] = system: RPMI-8226 leukemia
[33] = system: SK-OV-3 ovarian
[34] = system: M14 melanoma
[35] = system: K-562 leukemia
[36] = system: NCI-H522 lung
[37] = system: OVCAR-8 ovarian
[38] = system: SN12C renal
[39] = system: MDA-MB-231 breast
[40] = system: SNB-19 CNS
[41] = system: SF-295 CNS
[42] = system: HT29 colon
[43] = system: HCC-2998 colon
[44] = system: CCRF-CEM leukemia
[45] = system: T-47D breast
[46] = system: IGROV1 ovarian
[47] = system: A549 NSCLC
[48] = system: A498 renal
[49] = system: MALME-3M melanoma
[50] = system: HCT-116 colon
[51] = system: NCI-H23 lung
[52] = system: NCI-H226 lung
[53] = system: SF-268 CNS
[54] = system: SNB-75 CNS
[55] = system: HS 578T breast
[56] = system: 786-0 renal
[57] = system: UACC-257 melanoma

Q: Which GI50 [1] does the source give for Cc1ccc(C(SCCNCc2cc(N(C)C)ccn2)(c2ccccc2)c2ccccc2)cc1 here?
A: 1490 nM

Q: And the TGI [1]?
A: 3.9 µM

Q: And the GI50 [2]?
A: 2350 nM

Q: What about the TGI [2] of the same molecule?
A: 6.87 µM

Q: What about the GI50 [3] of the same molecule?
A: 1850 nM

Q: And the TGI [3]?
A: 8.82 µM

Q: And the GI50 [4]?
A: 3.54 µM

Q: And the TGI [4]?
A: 12.5 µM

Q: And the GI50 [5]?
A: 2650 nM

Q: And the TGI [5]?
A: 10.3 µM

Q: What about the GI50 [6] of the same molecule?
A: 373 nM

Q: And the TGI [6]?
A: 1570 nM

Q: What about the GI50 [7] of the same molecule?
A: 5.19 µM

Q: What about the TGI [7] of the same molecule?
A: 17.9 µM

Q: What about the GI50 [8] of the same molecule?
A: 4.68 µM

Q: And the TGI [8]?
A: 17.3 µM

Q: And the GI50 [9]?
A: 4.4 µM

Q: And the TGI [9]?
A: 20.3 µM

Q: And the GI50 [10]?
A: 2630 nM

Q: What about the TGI [10] of the same molecule?
A: 11.9 µM

Q: And the GI50 [11]?
A: 496 nM

Q: What about the TGI [11] of the same molecule?
A: 1760 nM

Q: What about the GI50 [12] of the same molecule?
A: 3.34 µM

Q: And the TGI [12]?
A: 12 µM

Q: And the GI50 [13]?
A: 3.59 µM

Q: What about the TGI [13] of the same molecule?
A: 12.8 µM

Q: And the GI50 [14]?
A: 2690 nM

Q: And the TGI [14]?
A: 10.4 µM

Q: And the GI50 [15]?
A: 2200 nM

Q: What about the TGI [15] of the same molecule?
A: 4.89 µM

Q: And the GI50 [16]?
A: 5.56 µM

Q: And the TGI [16]?
A: 17.8 µM

Q: And the GI50 [17]?
A: 1700 nM

Q: And the TGI [17]?
A: 3.17 µM

Q: And the GI50 [18]?
A: 2940 nM

Q: And the TGI [18]?
A: 7.87 µM

Q: And the GI50 [19]?
A: 2520 nM

Q: And the TGI [19]?
A: 11.4 µM

Q: What about the GI50 [20] of the same molecule?
A: 1730 nM

Q: And the TGI [20]?
A: 4.19 µM

Q: And the GI50 [21]?
A: 1340 nM

Q: And the TGI [21]?
A: 9.42 µM

Q: What about the GI50 [22] of the same molecule?
A: 2380 nM

Q: What about the TGI [22] of the same molecule?
A: 6.9 µM

Q: What about the GI50 [23] of the same molecule?
A: 1420 nM

Q: And the TGI [23]?
A: 2770 nM

Q: And the GI50 [24]?
A: 2960 nM

Q: What about the TGI [24] of the same molecule?
A: 16.2 µM

Q: And the GI50 [25]?
A: 4.72 µM

Q: And the TGI [25]?
A: 17.3 µM

Q: And the GI50 [26]?
A: 3.02 µM

Q: What about the TGI [26] of the same molecule?
A: 9.9 µM

Q: And the GI50 [27]?
A: 3.03 µM

Q: What about the TGI [27] of the same molecule?
A: 12.5 µM

Q: And the GI50 [28]?
A: 3.26 µM

Q: What about the TGI [28] of the same molecule?
A: 14.3 µM

Q: What about the GI50 [29] of the same molecule?
A: 3.28 µM

Q: What about the TGI [29] of the same molecule?
A: 15.5 µM

Q: And the GI50 [30]?
A: 1550 nM

Q: And the TGI [30]?
A: 4.67 µM

Q: What about the GI50 [31] of the same molecule?
A: 9.9 µM

Q: What about the TGI [31] of the same molecule?
A: 21.8 µM

Q: What about the GI50 [32] of the same molecule?
A: 2080 nM

Q: And the TGI [32]?
A: 5.48 µM

Q: And the GI50 [33]?
A: 3.84 µM

Q: And the TGI [33]?
A: 14.4 µM

Q: And the GI50 [34]?
A: 1550 nM

Q: What about the TGI [34] of the same molecule?
A: 3.5 µM

Q: And the GI50 [35]?
A: 2220 nM

Q: And the TGI [35]?
A: 7.73 µM

Q: And the GI50 [36]?
A: 2340 nM

Q: And the TGI [36]?
A: 6.63 µM

Q: What about the GI50 [37] of the same molecule?
A: 3.3 µM

Q: What about the TGI [37] of the same molecule?
A: 20 µM

Q: And the GI50 [38]?
A: 3.94 µM

Q: What about the TGI [38] of the same molecule?
A: 14.6 µM

Q: What about the GI50 [39] of the same molecule?
A: 2350 nM

Q: And the TGI [39]?
A: 6.33 µM

Q: And the GI50 [40]?
A: 4.42 µM

Q: What about the TGI [40] of the same molecule?
A: 16.3 µM

Q: What about the GI50 [41] of the same molecule?
A: 1460 nM

Q: What about the TGI [41] of the same molecule?
A: 2860 nM

Q: What about the GI50 [42] of the same molecule?
A: 1980 nM

Q: And the TGI [42]?
A: 4.17 µM

Q: What about the GI50 [43] of the same molecule?
A: 1420 nM

Q: And the TGI [43]?
A: 2750 nM

Q: And the GI50 [44]?
A: 2030 nM

Q: What about the TGI [44] of the same molecule?
A: 8.53 µM

Q: And the GI50 [45]?
A: 2810 nM

Q: What about the TGI [45] of the same molecule?
A: 11 µM

Q: And the GI50 [46]?
A: 3.81 µM

Q: And the TGI [46]?
A: 16.1 µM

Q: And the GI50 [47]?
A: 4.13 µM

Q: What about the TGI [47] of the same molecule?
A: 18 µM

Q: And the GI50 [48]?
A: 13.4 µM

Q: What about the TGI [48] of the same molecule?
A: 27 µM

Q: And the GI50 [49]?
A: 1750 nM

Q: What about the TGI [49] of the same molecule?
A: 3.29 µM

Q: What about the GI50 [50] of the same molecule?
A: 1230 nM

Q: What about the TGI [50] of the same molecule?
A: 5.22 µM

Q: What about the GI50 [51] of the same molecule?
A: 1720 nM

Q: And the TGI [51]?
A: 3.32 µM

Q: What about the GI50 [52] of the same molecule?
A: 14 µM

Q: What about the TGI [52] of the same molecule?
A: 28.1 µM

Q: What about the GI50 [53] of the same molecule?
A: 4.46 µM

Q: And the TGI [53]?
A: 18.7 µM

Q: What about the GI50 [54] of the same molecule?
A: 1960 nM

Q: What about the TGI [54] of the same molecule?
A: 12.4 µM

Q: What about the GI50 [55] of the same molecule?
A: 2580 nM

Q: And the TGI [55]?
A: 10.5 µM

Q: And the GI50 [56]?
A: 1880 nM

Q: What about the TGI [56] of the same molecule?
A: 3.83 µM

Q: And the GI50 [57]?
A: 4.27 µM

Q: And the TGI [57]?
A: 15.4 µM
